Values after ≈ are worked out from the molar mass of the structure shown. Where two headings read alike, the source gives them in different places.
Experiments:
[1] = Infrared spectra of fatty acid treated porcine stratum corneum; conditions: C-H antisymmetric stretching; stratum corneum treated with […] fatty acid in ethanol, 30% (w/w) water
Description: (§1) Stratum corneum sheets were prepared from porcine skin by trypsin treatment. Thus, full thickness porcine skin samples were dermatomed to 350 μm thickness and spread, stratum corneum side up, on filter paper saturated with 0.5% crude trypsin in phosphate buffered saline at pH 7.4 (Sorensen's buffer). After several hours at 37° C. the stratum corneum was peeled away, washed in soybean trypsin inhibitor, water and air dried. Samples were stored desiccated at room temperature until used. Prior to use, dry skin samples of known weight were incubated for two hours in an 0.15M solution of the appropriate fatty acid in ethanol, the samples were then washed for ten seconds in ethanol, spread on wire mesh, dried over a desiccant and the dry sample reweighed. The stratum corneum samples were then held for several days in a chamber at 22° C., 95% relative humidity, during which the stratum corneum samples equilibrated to a water content of 30% (w/w).
Infrared spectra were obtained with a Fourier Transform Infrared Spectrometer^4 (FTIR) equipped with a liquid nitrogen cooled mercury-cadmium telluride detector. In order to prevent water loss, hydrated samples were sealed between zinc sulfide windows while maintained at 22° C., 95% relative humidity. Sealed samples were placed in the spectrometer where an average of 127 scans were obtained in about six minutes for each of the fatty acid treatments. The digitized data were transferred to a computer (Apple IIe) for determination of frequency and bandwidth of the C--H antisymmetric stretching absorbance. Due to the digital nature of the FTIR instrument, absorbance and frequency data exist only in discrete increments. With the instrument used, the exact value of any frequency point could only be determined with a precision not greater than 2.7 cm^-1. The peak frequency was estimated with much greater precision, however, using a center of gravity algorithm for digitized data reported by Cameron et al., Applied Spectr., 36 245-250 (1982).

[2] = Differential scanning calorimetry of fatty acid treated porcine stratum corneum; conditions: stratum corneum treated with […] fatty acid in ethanol, 30% (w/w) water
Description: as §1
(§2) The differential scanning calorimeter^5 was used at a scan rate of 0.75° C./minute. Duplicate samples from each of the above FTIR experiments were combined for DSC measurements. Alternately, stratum corneum samples of known weight (about 20 mg) were treated with each fatty acid in the same manner described above. Treated samples were hydrated for several days at 95% R.H., 22° C. and reweighed.

[3] = format: in vitro ADME, porcine
Description: Samples were removed periodically from the receiver side of the diffusion cell, mixed with a Z0 scintillation cocktail (Scintisol, Isolabs, Inc., Akron, OH) and counted for several minutes in a liquid scintillation counter (Model Mark III-6881, Tracor Analytical, Elk Grove Village, IL). Following an initial lag time of about 6 hours, the amount of
salicylic acid appearing in the receiver side was linear with time for the duration of the experiment (routinely 24 to 48 hours). […] This value, when divided by the specific acitivity of salicyclic acid in the saturated solution (approximately 300 dpm/mg) and the area of exposed skin (0.2 cm^2), yielded the flux (mg/cm^2/ hr). Samples removed from the donor side at the beginning and end of the experiment contained, within error, the same amount of salicylic acid. Thus, constant concentration of the permeant was maintained on the donor side throughout the experiment.

[4] = for Flux: SD in parentheses
[5] = Description: The in vitro flux of piroxicam was measured from ethanol/buffer vehicles containing 0.25% v/v (0.224% w/v) cis-9-octadecenoic acid (oleic acid). The buffer employed was Sorensen's Buffer, pH 7.3-7.4^3, all experiments were carried out at 32° C. […] Buffer only was introduced into the chamber (receiver) in contact with the internal side of the skin. The donor chamber, in contact with the outer side of the skin was filled with the appropriate ethanol/buffer vehicle containing 0.25% v/v cis-9-octadecenoic acid (oleic acid) and an excess of piroxicam.
[6] = Lipid transition temperature of porcine stratum corneum by DSC in vehicles containing oleic acid
Description: as §1, with “dry skin samples of known weight were incubated for two hours in an 0.15M solution of the appropriate” left out
as §2

[7] = physchem; conditions: […] oleic acid, organic solvent or mixture

CCCCCCCC/C=C/CCCCCCCC(=O)O [Elaidic, elaidic acid]
Peak IR Frequency [1]: 2919.4 cm⁻¹
DSC Tm (temperature of the transition maximum) [2]: 61.5 °C
Flux of Salicylic Acid [3]: 2.35 mg/cm^2 /hr

Cc1cnc(C(=O)NCCc2ccc(S(=O)(=O)NC(=O)NC3CCCCC3)cc2)cn1 [Glipizide]
Flux ([4]; 20% v/v ethanol, 0.5% v/v Azone, 6.8 mg/ml, pH 8.8): 55.9 (38.8) mg/day/30 cm^2
Flux ([4]; 20% v/v ethanol, no Azone, 6.7 mg/ml, pH 8.9): 0.4 (0.04) mg/day/30 cm^2
Flux ([4]; 30% v/v ethanol, 0.5% v/v Azone, 8.1 mg/ml, pH 8.8): 101.4 (10.3) mg/day/30 cm^2
Flux ([4]; 30% v/v ethanol, no Azone, 8.2 mg/ml, pH 8.9): 0.6 (0.2) mg/day/30 cm^2
Flux ([4]; 55% v/v ethanol, 0.5% v/v Azone, 17.5 mg/ml, pH 8.8): 30.8 (6.5) mg/day/30 cm^2
Flux ([4]; 55% v/v ethanol, no Azone, 17.9 mg/ml, pH 9.1): 2.7 (0.5) mg/day/30 cm^2
in vitro transport ([4]; range over vehicles): 30.8 to 101.4 mg/day/30 cm^2

CC(C)Cc1ccc(C(C)C(=O)O)cc1 (stereo not shown) [Ibuprofen, 2-(4-isobutylphenyl)propionic acid]
Relative Flux ([5]; 0/100 v/v ethanol/buffer, […] v/v oleic acid (reference)): 1.0
Relative Flux ([5]; 20/80 v/v ethanol/buffer, […] v/v oleic acid, relative to 0/100 ethanol/buffer): 1.5
Relative Flux ([5]; 30/70 v/v ethanol/buffer, […] v/v oleic acid, relative to 0/100 ethanol/buffer): 1.8
Relative Flux ([5]; 40/60 v/v ethanol/buffer, […] v/v oleic acid, relative to 0/100 ethanol/buffer): 3.5
Relative Flux ([5]; 50/50 v/v ethanol/buffer, […] v/v oleic acid, relative to 0/100 ethanol/buffer): 5
Relative Flux ([5]; 60/40 v/v ethanol/buffer, […] v/v oleic acid, relative to 0/100 ethanol/buffer): 4.5
Relative Flux ([5]; 70/30 v/v ethanol/buffer, […] v/v oleic acid, relative to 0/100 ethanol/buffer): 4.5
Relative Flux ([5]; 100/0 v/v ethanol/buffer, […] v/v oleic acid, relative to 0/100 ethanol/buffer): 4.5

CCCCCCCC/C=C\CCCCCCCC(=O)O [Oleic Acid, cis-9-octadecenoic acid]
DSC Tm (temperature of the transition maximum) [2]: 59.0 ± 1.5 °C
Flux of Salicylic Acid [3]: 3.81 mg/cm^2 /hr
flux of salicylic acid (in words) [3]: significantly greater
Lipid Transition Temperature, Tm ([6]; 0/100 PEG 200/0.1M Tris buffer (pH 6.8-7.3), […] v/v oleic acid): 59 °C
Lipid Transition Temperature, Tm ([6]; 0/100 ethanol/0.1M Tris buffer (pH 6.8-7.3), […] v/v oleic acid): 58 °C
Lipid Transition Temperature, Tm ([6]; 0/100 glycerin/0.1M Tris buffer (pH 6.8-7.3), […] v/v oleic acid): 58 °C
Lipid Transition Temperature, Tm ([6]; 0/100 v/v ethanol/Sorensen's buffer pH 7.3, […] v/v oleic acid): 57.5 °C
Lipid Transition Temperature, Tm ([6]; 20/40/40 ethanol/PG/0.1M Tris buffer (pH 6.8-7.3), […] v/v oleic acid): 55 °C
Lipid Transition Temperature, Tm ([6]; 20/80 PEG 200/0.1M Tris buffer (pH 6.8-7.3), […] v/v oleic acid): 59 °C
Lipid Transition Temperature, Tm ([6]; 20/80 ethanol/0.1M Tris buffer (pH 6.8-7.3), […] v/v oleic acid): 59 °C
Lipid Transition Temperature, Tm ([6]; 20/80 glycerin/0.1M Tris buffer (pH 6.8-7.3), […] v/v oleic acid): 62.5 °C
Lipid Transition Temperature, Tm ([6]; 20/80 v/v ethanol/Sorensen's buffer pH 7.3, […] v/v oleic acid): 54.5 °C
Lipid Transition Temperature, Tm ([6]; 30/70 v/v ethanol/Sorensen's buffer pH 7.3, […] v/v oleic acid): 54.0 °C
Lipid Transition Temperature, Tm ([6]; 33/33/34 ethanol/PG/0.1M Tris buffer (pH 6.8-7.3), […] v/v oleic acid): 59 °C
Lipid Transition Temperature, Tm ([6]; 34/66/0 ethanol/PG/0.1M Tris buffer (pH 6.8-7.3), […] v/v oleic acid): 61 °C
Lipid Transition Temperature, Tm ([6]; 40/20/40 ethanol/PG/0.1M Tris buffer (pH 6.8-7.3), […] v/v oleic acid): 58.5 °C
Lipid Transition Temperature, Tm ([6]; 40/40/20 ethanol/PG/0.1M Tris buffer (pH 6.8-7.3), […] v/v oleic acid): 60 °C
Lipid Transition Temperature, Tm ([6]; 40/60 PEG 200/0.1M Tris buffer (pH 6.8-7.3), […] v/v oleic acid): 57.5 °C
Lipid Transition Temperature, Tm ([6]; 40/60 ethanol/0.1M Tris buffer (pH 6.8-7.3), […] v/v oleic acid): 55 °C
Lipid Transition Temperature, Tm ([6]; 40/60 glycerin/0.1M Tris buffer (pH 6.8-7.3), […] v/v oleic acid): 57 °C
Lipid Transition Temperature, Tm ([6]; 40/60 v/v ethanol/Sorensen's buffer pH 7.3, […] v/v oleic acid): 53.2 ± 0.6 °C
Lipid Transition Temperature, Tm ([6]; 50/50 v/v ethanol/Sorensen's buffer pH 7.3, […] v/v oleic acid): 55.1 °C
Lipid Transition Temperature, Tm ([6]; 60/40 PEG 200/0.1M Tris buffer (pH 6.8-7.3), […] v/v oleic acid): 57 °C
Lipid Transition Temperature, Tm ([6]; 60/40 ethanol/0.1M Tris buffer (pH 6.8-7.3), […] v/v oleic acid): 59 °C
Lipid Transition Temperature, Tm ([6]; 60/40 glycerin/0.1M Tris buffer (pH 6.8-7.3), […] v/v oleic acid): 54 °C
Lipid Transition Temperature, Tm ([6]; 60/40 v/v ethanol/Sorensen's buffer pH 7.3, […] v/v oleic acid): 53.4 °C
Lipid Transition Temperature, Tm ([6]; 66/34/0 ethanol/PG/0.1M Tris buffer (pH 6.8-7.3), […] v/v oleic acid): 60 °C
Lipid Transition Temperature, Tm ([6]; 70/30 v/v ethanol/Sorensen's buffer pH 7.3, […] v/v oleic acid): 58.8 °C
Lipid Transition Temperature, Tm ([6]; 80/20 PEG 200/0.1M Tris buffer (pH 6.8-7.3), […] v/v oleic acid): 61 °C
Lipid Transition Temperature, Tm ([6]; 80/20 ethanol/0.1M Tris buffer (pH 6.8-7.3), […] v/v oleic acid): 61 °C
Lipid Transition Temperature, Tm ([6]; 80/20 glycerin/0.1M Tris buffer (pH 6.8-7.3), […] v/v oleic acid): 59 °C
Lipid Transition Temperature, Tm ([6]; 100/0 v/v ethanol/Sorensen's buffer pH 7.3, […] v/v oleic acid): 66.4 °C

CN1C(C(=O)Nc2ccccn2)=C(O)c2ccccc2S1(=O)=O [Piroxicam, 4-hydroxy-2-methyl-N-2-pyridinyl-2H-1,2-benzothiazine-3-carboxamide 1,1-dioxide]
solubility ([7]; 0/100 ethanol/buffer): 40 µg/mL (≈ 121 µM)
solubility ([7]; 10/90 ethanol/buffer): 190 µg/mL (≈ 573 µM)
solubility ([7]; 20/80 ethanol/buffer): 460 µg/mL (≈ 1390 µM)
solubility ([7]; 30/70 ethanol/buffer): 710 µg/mL (≈ 2140 µM)
solubility ([7]; 40/60 ethanol/buffer): 1200 µg/mL (≈ 3620 µM)
solubility ([7]; 50/50 ethanol/buffer): 1500 µg/mL (≈ 4530 µM)
solubility ([7]; 100/0 ethanol/buffer): 1200 µg/mL (≈ 3620 µM)

NC(CO)(CO)CO [Tris]
effect on oleic acid's action on stratum corneum lipids ([6]; concentration dependent): reduces the effect of oleic acid on stratum corneum lipids

CCCCCC/C=C\CCCCCCCCCC(=O)O [cis-vaccenic, cis-11-octadecenoic acid]
DSC Tm (temperature of the transition maximum) [2]: 57.0 °C
flux of salicylic acid (in words) ([3]; difference relative to the controls and trans-vaccenic acid): even greater
Flux of Salicylic Acid ([3]; saturated salicylic acid in ethanol with […] of the fatty acid, 32° C.): 5.53 mg/cm^2 /hr

Reference: patent US5196410A, “Transdermal flux enhancing compositions” (priority 1991, dated 1993)
